Series [1] can be described thus: Cytotoxicity against HEK cells assessed as reduction in cell viability after 48 hrs by MTT assay. In kind it is toxicity, cell-based, HEK293. As to conditions: human, read-out: MIC50. (Formazan colour is commonly taken as a measure of viable cells.)
Series [2] is described as follows: Antimicrobial activity against vancomycin-intermediate Staphylococcus aureus Mu50 ATCC 700699 measured after overnight incubation by microdilution broth method. In kind it is functional, Staphylococcus aureus subsp. aureus Mu50. Background: Broth dilution looks for growth in wells or tubes with falling amounts of substance.
The nature of series [3]: Therapeutic index, ratio of IC50 for HEK cells to MIC90 for methicillin-resistant Staphylococcus aureus ATCC BAA-44. In kind it is cell-based, HEK293. As to conditions: human, read-out: TI.
Series [4] deals with Staphylococcus aureus. The series is described as follows: Antimicrobial activity against methicillin-resistant Staphylococcus aureus ATCC 33591 measured after overnight incubation by microdilution broth method. It is filed as functional.
Series [5] can be described thus: Selectivity ratio of MIC90 for vancomycin-intermediate Staphylococcus aureus Mu50 ATCC 700699 to MIC90 for methicillin-resistant Staphylococcus aureus ATCC BAA-44. In kind it is functional.
A short description of series [6]: Hemolytic activity in human RBC at 128 ug/ml after 1 hr. In kind it is ADME, cell-based, Erythrocyte. As to conditions: red blood cells, read-out: Activity.
The test system of series [7] is Staphylococcus aureus. Description: Antimicrobial activity against methicillin-resistant Staphylococcus aureus ATCC BAA-44 measured after overnight incubation by microdilution broth method. It is filed as functional.
A short description of series [8]: Selectivity ratio of MIC90 for methicillin-resistant Staphylococcus aureus ATCC 33591 to MIC90 for methicillin-resistant Staphylococcus aureus ATCC BAA-44. In kind it is functional.
Series [9] concerns Staphylococcus aureus. The series is described as follows: Growth inhibition of methicillin-resistant Staphylococcus aureus ATCC 33591 at 64 ug/ml measured after overnight incubation by microdilution broth method relative to control. As to conditions: read-out: GI. It is filed as functional.
For series [10], the system named is Staphylococcus aureus. Description: Antimicrobial activity against methicillin-resistant Staphylococcus aureus USA300-0114 infected in Galleria Mellonella assessed as increase in survival of worms at 5 times MIC measured 24 to 48 hrs post dose. It is filed as functional.
The subject of series [11] is Staphylococcus aureus. Description: Inhibition of Staphylococcus aureus DNA gyrase assessed as reduction in supercoiling of relaxed pHOT-1 after 30 mins by SDS based agarose gel electrophoresis.
Series [12] relates to Staphylococcus aureus. Description: Antimicrobial activity against methicillin-resistant Staphylococcus aureus USA300-0114 infected in Galleria Mellonella assessed as increase in larvae survival at 10 times MIC measured 24 to 48 hrs post dose. It is filed as functional.

Calls of active or inactive are those of the source. No cut-off for these calls is given here.

In general, MIC90 refers to the lowest concentration that inhibits either 90% of growth or 90% of the strains tested, depending on the study. On to `Cn1cc(C[C@@H]2CN3C(=N2)SC(c2ccccc2)=C3c2ccccc2)c2ccccc21`, for which the CC50 at 48 h in series [1] was determined as 63 µM. The MIC90 worked out at 19 µM in series [2], 38 µM in series [4] and 9.5 µM in [7]. Also, in [3], the selectivity ratio came to 6.6. Also, the Selectivity ratio in series [5] is 2. Further, the hemolysis at 1 h, 128 ug/ml in series [6] is less than 2%.

Turning to `N=C(N)NCCC[C@H]1CN2C(c3ccc4ccccc4c3)=CSC2=N1`, the MIC90 in [4] was determined as 364 µM; in series [7] it was 182 µM. Further, the Selectivity ratio in series [8] is 2. Further, the inhibition of growth at 64 µg/mL in [9] is more than 80%. In addition, in [6], the hemolysis at 1 h, 128 ug/ml is less than 2%.

For the compound `CC(C)C[C@H]1CN2C(c3ccc4ccccc4c3)=CSC2=N1`, the values for the MIC90 in series [4] and in series [7] were 102 µM and 51 µM, respectively. Besides, in [8], the Selectivity ratio was found to be 2. For the same compound, the inhibition of growth at 64 µg/mL in series [9] was more than 80%. For the same compound, the hemolysis at 1 h, 128 ug/ml in series [6] is less than 2%.

As for `N=C(N)NCCC[C@@H]1CN2C(=N1)SC(c1ccccc1)=C2c1ccccc1`, the CC50 at 48 h in [1] turned out to be 100 µM. For the same compound, the MIC90 turned out to be 338 µM in series [2], 111 µM in series [4] and 338 µM in [7]. The selectivity ratio in [3] was found to be 0.3. In addition, the Selectivity ratio in series [5] worked out at 2. In series [6], the hemolysis at 1 h, 128 ug/ml is less than 2%.

On to `CC(C)C[C@H]1CN2C(=N1)SC(c1ccccc1)=C2c1ccccc1`, for which the MIC90 stood at 48 µM in series [4] and 24 µM in [7]. Moreover, in series [8], the Selectivity ratio turned out to be 2. Further, the inhibition of growth at 64 µg/mL in series [9] was more than 80%. Also, the hemolysis at 1 h, 128 ug/ml in series [6] was less than 2%.

Turning to `Cn1cc(C[C@@H]2CN3C(c4ccc5ccccc5c4)=CSC3=N2)c2ccccc21`, in [1], the CC50 at 48 h stood at 20 µM. In addition, the MIC90 in [2] stood at 40 µM; in [4] it was 10 µM; in series [7] it was 10 µM. Further, in [3], the selectivity ratio worked out at 2. Further, the Selectivity ratio in series [5] came out at 2. Further, the hemolysis at 1 h, 128 ug/ml in series [6] is less than 2%.

Consider `Oc1ccc(C[C@@H]2CN3C(=N2)SC(c2ccccc2)=C3c2ccccc2)cc1`, for which the CC50 at 48 h in [1] came out at 72 µM. Also, the MIC90 in series [2] was found to be 40 µM; in series [4], 20 µM; in series [7], 31 µM. The selectivity ratio in series [3] was 2.3. Also, in series [5], the Selectivity ratio came out at 2. Also, the hemolysis at 1 h, 128 ug/ml in [6] is less than 2%.

On to `Cn1cc(C[C@H]2CN3C(=N2)SC(c2ccccc2)=C3c2ccccc2)c2ccccc21`, for which the MIC90 in series [4] was determined as 151 µM; in [7], 19 µM. The Selectivity ratio in series [8] is 2. The inhibition of growth at 64 µg/mL in [9] is more than 80%. The hemolysis at 1 h, 128 ug/ml in series [6] was less than 2%.

Consider `Oc1ccc(C[C@H]2CN3C(=N2)SC(c2ccccc2)=C3c2ccccc2)cc1`, for which the MIC90 came to 84 µM in series [4] and 42 µM in series [7]. The Selectivity ratio in series [8] is 2. Moreover, in series [9], the inhibition of growth at 64 µg/mL was more than 80%. Besides, the hemolysis at 1 h, 128 ug/ml in [6] was less than 2%.

For `CC(C)C[C@@H]1CN2C(=N1)SC(c1ccccc1)=C2c1ccccc1`, the CC50 at 48 h in series [1] was 56 µM. Moreover, the outcome in series [10] and in series [12] was Active. Besides, the MIC90 in series [2] was 24 µM; in [4] it was 12 µM; in series [7] it was 11 µM. In addition, the inhibition result in series [11] is “Dose-dependent effect”. For the same compound, in [3], the selectivity ratio amounted to 5. The Selectivity ratio in series [5] amounted to 2. In addition, the hemolysis at 1 h, 128 ug/ml in series [6] is less than 2%.

Regarding `Cn1cc(C[C@H]2CN3C(c4ccc5ccccc5c4)=CSC3=N2)c2ccccc21`, the MIC90 was determined as 162 µM in series [4] and 20 µM in series [7]. Also, the Selectivity ratio in series [8] was found to be 2. Moreover, the inhibition of growth at 64 µg/mL in series [9] is more than 80%. Further, the hemolysis at 1 h, 128 ug/ml in series [6] was less than 2%.

In the case of `COc1cccc(OC)c1C(=O)N[C@@H]1C(=O)N2[C@@H]1SC(C)(C)[C@@H]2C(=O)O` [METHICILLIN], the MIC90 in series [2], in [4] and in series [7] was more than 128 µg/mL in each case.

Regarding `CN[C@H](CC(C)C)C(=O)N[C@H]1C(=O)N[C@@H](CC(N)=O)C(=O)N[C@H]2C(=O)N[C@H]3C(=O)N[C@H](C(=O)N[C@H](C(=O)O)c4cc(O)cc(O)c4-c4cc3ccc4O)[C@H](O)c3ccc(c(Cl)c3)Oc3cc2cc(c3O[C@@H]2O[C@H](CO)[C@@H](O)[C@H](O)[C@H]2O[C@H]2C[C@](C)(N)[C@H](O)[C@H](C)O2)Oc2ccc(cc2Cl)[C@H]1O` [VANCOMYCIN], the MIC90 in series [2] worked out at 8 µg/mL; in [4], 2 µg/mL; in series [7], 4 µg/mL.

On to `c1ccc(C[C@@H]2CN3C(=N2)SC(c2ccccc2)=C3c2ccccc2)cc1`, for which, in series [1], the CC50 at 48 h stood at 71 µM. For the same compound, the MIC90 is 42 µM in [2], 21 µM in [4] and 14.6 µM in [7]. In addition, in series [3], the selectivity ratio came to 4.9. Also, the Selectivity ratio in series [5] was 2. For the same compound, the hemolysis at 1 h, 128 ug/ml in series [6] is less than 2%.

Turning to `c1ccc(C[C@H]2CN3C(=N2)SC(c2ccccc2)=C3c2ccccc2)cc1`, the MIC90 in series [4] stood at 173 µM; in series [7], 21 µM. Further, the Selectivity ratio in series [8] worked out at 2. Moreover, the inhibition of growth at 64 µg/mL in series [9] was more than 80%. The hemolysis at 1 h, 128 ug/ml in series [6] is less than 2%.

As for `N=C(N)NCCC[C@H]1CN2C(=N1)SC(c1ccccc1)=C2c1ccccc1`, the figures for the MIC90 in series [4] and in [7] were 169 µM and 338 µM, respectively. Further, in series [8], the Selectivity ratio came to 2. Besides, the inhibition of growth at 64 µg/mL in series [9] is more than 80%. Further, the hemolysis at 1 h, 128 ug/ml in series [6] was less than 2%.

With `CC(C)C[C@@H]1CN2C(c3ccc4ccccc4c3)=CSC2=N1`, the CC50 at 48 h in [1] came to 36 µM. For the same compound, the values for the MIC90 in series [2], in series [4] and in series [7] were 102 µM, 51 µM and 51 µM, respectively. Besides, the selectivity ratio in series [3] worked out at 0.7. In series [5], the Selectivity ratio was 2. Moreover, the hemolysis at 1 h, 128 ug/ml in series [6] was less than 2%.

Regarding `N=C(N)NCCC[C@@H]1CN2C(c3ccc4ccccc4c3)=CSC2=N1`, the CC50 at 48 h in series [1] stood at 257 µM. The values for the MIC90 in [2], in series [4] and in [7] were 184 µM, 69 µM and 69 µM, respectively. The selectivity ratio in series [3] was determined as 3.7. Further, in series [5], the Selectivity ratio stood at 2. The hemolysis at 1 h, 128 ug/ml in series [6] was less than 2%.

Source of the values: ChEMBL document CHEMBL3856267, “Identification of 5,6-dihydroimidazo[2,1-b]thiazoles as a new class of antimicrobial agents” (Bioorg Med Chem, 2016).
